The assay concerns SREBP1. The assay is described as follows: Immunofluorescence of SREBP1 nuclear accumulation. It counts as cell-based, human. To be noted: Huh7 cells, peptide 15 μM, IGF1 100 ng/mL 8 h. The protocol:
Figure 1 The Insig1/2 loop 1 peptide binds to S90‐phosphorylated PCK1 and blocks PCK1‐mediated SREBP activation and tumor cell proliferation. Immunoblotting analyses were performed using the indicated antibodies; representative results from three independent experiments are shown (IP, immunoprecipitation; WB, western blot). a) Huh7 cells expressing various Insig1 (top) or Insig2 (bottom) truncation mutants were treated with or without IGF1 (100 ng mL^−1) for 1 h. b,c) Biolayer interferometry assays (Sartorius Octet) were employed to measure the binding affinity of Insig1/2 loop 1 peptide to GST‐PCK1 or GST‐PCK1 pS90 proteins. […] Statistical significance was determined by one‐way analysis of variance (ANOVA). g) Following pretreatment with Insig1/2 loop 1 peptide (15 µM) and IGF1 stimulation (100 ng mL^−1, 8 h), Huh7 cells were subjected to immunofluorescence analysis (scale bar: 10 µm). h) Quantitative PCR analysis of SREBP1 target gene GPAM in Huh7 cells pretreated with Insig1/2 loop 1 peptide (15 µM) and stimulated with IGF1 (100 ng mL^−1) for 10 h. […] Statistical significance was determined by one‐way analysis of variance (ANOVA). i) Quantitative PCR analysis of SREBP1 target gene FASN in Huh7 cells pretreated with Insig1/2 loop 1 peptide (15 µM) and stimulated with IGF1 (100 ng mL^−1) for 10 h. […]

As for “RKKRRQRRRLYPCIDSHLGEPHKFKRE [Insig1/2 loop 1 peptide]”, the “nuclear accumulation of SREBP1” value is listed as “markedly inhibited”.

(Values after paper PMC12677653, “Inhibition of Tumor Lipogenesis and Growth by Peptide‐Based Targeting of SREBP Activation” (Advanced Science, 2025).)
